Assay results taken from article PMC5341858, “Molecular regulation of apoptotic machinery and lipid metabolism by mTORC1/mTORC2 dual inhibitors in preclinical models of HER2+/PIK3CAmut breast cancer” (Oncotarget, 2016).

What was measured:
Type in all cases: cell-based
MDA-MB-231 cells = assay: Glucose-to-lipid conversion (de novo lipid synthesis); details: similar treatment, 4 h saturating dose
Description: (§1) Cellular glucose-to-lipid conversion was measured as described. Briefly, cells were pretreated with inhibitors for 2 h, incubated for 2 h in medium containing 2 μCi/mL D-[1-14C] glucose (PerkinElmer, NEC043X001MC). Total lipids were extracted twice with 300 μL hexane:isopropanol (3:2; vol:vol). Cell debris was carefully removed by centrifugation at 14,000 rpm for 5 min using a microcentrifuge. Radioactive lipids were dried, redissolved with 100 μL of chloroform and determined by liquid scintillation counting. A duplicate assay plate without radioactive glucose label was used to count the number of cells per treatment. Glucose to total lipid conversion rate is the radioactive counts from the extracted lipid normalized by the number of cells per hour of ^14C-glucose incubation. For acetyl-CoA assay, cells grown in 96-well plates were washed and lysed in 40 μL/well using lysis buffer. Cell lysates were transferred to V-bottom plates, cleared by centrifugation. 30 μL of the cleared cell lysates were subjected to acetyl-CoA measurement using an acetyl-CoA assay kit (Sigma, MAK-039) following manufacturer's assay manual. Duplicate assay plates were used to count the number of cells per treatment for normalization in determining cellular acetyl-CoA levels.

MDA-MB-453 cells [1] = assay: as above; details: 4 h, saturating dose (5 μM MTI-31, 1 μM rapamycin)
Description: as §1

MDA-MB-453 cells [2] = assay: Total cellular acetyl-CoA level; details: 24 h
Description: as §1

SMILES	effect on de novo lipid synthesis (MDA-MB-231 cells)	suppression of de novo lipid synthesis (14C-glucose-to-lipid conversion rate) (MDA-MB-453 cells [1]) [%]	reduction in acetyl-CoA (MDA-MB-453 cells [2]) [%]
COc1ccc(-c2ccc3c(N4CCOC[C@@H]4C)nc(N4CCOC[C@@H]4C)nc3n2)cc1CO [AZD8055]	did not significantly reduce lipid synthesis	63	
CO[C@H]1C[C@@H]2CC[C@@H](C)[C@@](O)(O2)C(=O)C(=O)N2CCCC[C@H]2C(=O)O[C@H]([C@H](C)C[C@@H]2CC[C@@H](O)[C@H](OC)C2)CC(=O)[C@H](C)/C=C(\C)[C@@H](O)[C@@H](OC)C(=O)[C@H](C)C[C@H](C)/C=C/C=C/C=C/1C [rapamycin]	did not significantly reduce lipid synthesis	32	45
